Data set [1] deals with Sigma-1 receptor (Cavia porcellus (Guinea pig), UniProt Q60492). Description: Sigma-1 receptor binding affinity test ([3H]-(+)-pentazocine displacement, guinea pig cerebral cortex membranes). To be noted: [3H]-(+)-pentazocine 10 nM, 25° C., 180 minutes; read-out: Sigma1R Ki. Here is the method:
Guinea pigs (provided by Beijing Vital River Laboratory Animal Technology Co., Ltd.) were decapitated, and the operations were carried out on ice. The cerebral cortex was quickly harvested and pooled into a centrifuge tube. A suitable amount of buffer (0.05M Tris-HCl with 0.32M sucrose) was added to the tube, and the tissue was homogenized using a homogenizer (IKA, Ultra Turrax T25 Digital) at setting 4 for 3˜4 seconds, repeated four times. After homogenization, solution B was added to adjust the volume to 10 mL/g. The weight of the centrifuge tubes was balanced, and then they were centrifuged at 1000 g for 10 minutes using a high-speed refrigerated centrifuge. The supernatant was collected and adjusted to 2 mL/g with solution B, followed by centrifugation at 1000 g and 4° C. for 10 minutes. The supernatant was then centrifuged at 18000 rpm and 4° C. for 25 minutes. The pellet was resuspended in solution B to a final volume of 3 mL/g and incubated in a water bath at 25° C. for 15 minutes. After incubation, the suspension was centrifuged at 18000 rpm and 4° C. for 45 minutes. The pellet was stored at −80° C. for future use.
An appropriate amount of homogenization buffer was added to the prepared membrane, and was dispersed into a suspension using a homogenizer, protein concentration was measured to be 4 mg/ml. 100 micrograms of protein were added to each well of a 96-well plate, with a volume of 90 μl. […] [3H]-(+)-pentazocine (Perkin-Elmer, Cat #NET1056250UC) was added to each well (final concentration of 10 nM). The 96-well plate was incubated in a constant temperature water bath (25° C., 180 minutes). […] After washing, the samples were dried in a 37° C. oven.

Data set [2] concerns motor balance ability of rats. Kind of data set: Rat rotarod test (motor balance ability). The data set is classed as in vivo. The settings on record: 15 rpm. The protocol:
Placing rats on a continuously rotating rod causes them to move immediately in the opposite direction of the rod's motion. […] During the formal experiment, the time the rats stay on the rotarod is used as an indicator to measure their motor balance ability. This experiment aims to explore the impact of compound 37 at doses ranging from 10 to 300 mg/kg on the motor balance ability of rats in the rotarod test.
After administration of the test substance to the rats, they are placed on the rotarod fatigue tester, and the average time spent on the rod after three tests is recorded and analyzed.
Calculate the Maximum Possible Effect on Motor Balance Ability %: Maximum Possible Effect on Motor Balance Ability %=(1−test group/vehicle)×100%
Note: The motor balance ability of the vehicle group is considered as 0%, and the Maximum Possible Effect on Motor Balance Ability % for each group is calculated based on this standard.
For orientation: In the rotarod test animals must keep their balance on a rotating rod.

Data set [3] has as its system Spinal Nerve Ligation (SNL) model. Kind of data set: Spinal Nerve Ligation (SNL) model, mechanical pain threshold by Von Frey filaments. The data set is classed as in vivo. The settings on record: rat, oral administration (i.g.), 100 mg/kg, mechanical pain threshold ipsilateral hind paw. From the text: It is a type of chronic pain characterized by features such as spontaneous pain, hyperalgesia, abnormal pain, and sensory disturbances. Following nerve damage, neuropathic pain can persist, and its characteristics include hypersensitive responses to stimuli […], the presence of abnormal sensations (allodynia), and painful responses to non-harmful stimuli […]. The Spinal Nerve Ligation (SNL) model involves the tight ligation of the L5 and L6 spinal nerves using sutures.
In this experiment, pregabalin at a dose of 100 mg/kg was used as a positive control to compare the analgesic effect of the test compound. After administration, the mechanical pain threshold in the ipsilateral hind paw of the rat was tested using Von Frey filaments. The change in mechanical pain threshold before and after administration was used to determine whether the test compound at 100 mg/kg has a neuropathic pain-relieving effect in the SNL model.

The term Ki denotes a dissociation constant, usually derived from enzyme kinetics or from competition with a known ligand.

Where a name gives a salt, the structure may show the parent alone.

Chain of Sigma-1 receptor (Q60492 whole entry): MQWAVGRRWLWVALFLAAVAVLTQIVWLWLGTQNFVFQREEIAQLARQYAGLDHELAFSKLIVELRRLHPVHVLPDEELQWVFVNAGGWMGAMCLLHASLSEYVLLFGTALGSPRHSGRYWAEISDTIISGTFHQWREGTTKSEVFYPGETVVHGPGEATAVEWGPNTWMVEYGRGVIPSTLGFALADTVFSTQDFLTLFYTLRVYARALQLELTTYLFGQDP

Take `Fc1ccc(-c2cc(CN3CCOCC3)on2)cc1F` [Compound 19]: the Ki in data set [1] worked out at 172 nM. As for `Fc1ccc(-c2cc(CN3CC[Se]CC3)on2)cc1F` [Compound 20], the Ki in data set [1] was determined as 48.9 nM. As to `OC1CCN(Cc2cc(-c3ccc(F)c(F)c3)no2)CC1` [Compound 37], in data set [2] (oral 15 minutes prior, 10-300 mg/kg), the “change in the time spent on the rotarod compared to the vehicle” value is recorded as “no significant change”. The “Maximum Possible Effect on Motor Balance Ability” value in data set [2] (oral 15 minutes prior, first of four doses in 10-300 mg/kg) is −6%; in data set [2] (oral 15 minutes prior, fourth of four doses in 10-300 mg/kg), −6%; in data set [2] (oral 15 minutes prior, second of four doses in 10-300 mg/kg), 11%; in data set [2] (oral 15 minutes prior, third of four doses in 10-300 mg/kg), −6%. For the compound `O[C@H]1CCN(Cc2cc(-c3ccc(F)c(F)c3)no2)C1` [Compound 38], the Ki in data set [1] stood at 378 nM. Still for that read-out and setting: as for `OC[C@H]1CCCN1Cc1cc(-c2ccc(F)c(F)c2)no1` [Compound 40], the figure is 190 nM.

For `OC[C@@H]1CCCN1Cc1cc(-c2ccc(F)c(F)c2)no1` [Compound 41], the Ki in data set [1] came out at 34 nM. The same measure, in the same setting: the same measure for `O[C@@H]1CCN(Cc2cc(-c3ccc(Cl)c(Cl)c3)no2)C1` [Compound 43]: 7.97 nM; for `OC[C@H]1CCCN1Cc1cc(-c2ccc(Cl)c(Cl)c2)no1` [Compound 44]: 19 nM. Still for that read-out and setting: the same measure for `OCCC1CCN(Cc2cc(-c3ccc(Cl)c(Cl)c3)no2)CC1` [Compound 47]: 0.74 nM; for `CC1COCC(C)N1CCOCc1cc(-c2ccc(Cl)c(Cl)c2)no1` (centres unmarked) [Compound 77]: 14.9 nM; for `O=C1CCN(Cc2cc(-c3ccc(F)c(F)c3)no2)CC1` [Compound 88]: 959 nM. As for `CC(C)C[C@H](CN)CC(=O)O` [Pregabalin, pregabalin], the “analgesic activity in the SNL model” value in data set [3] was “some analgesic activity”. With `Cc1cccc([C@H](C)c2cnc[nH]2)c1C` [dexmedetomidine hydrochloride injection, dexmedetomidine hydrochloride, reference compound], the “Maximum Possible Effect on Motor Balance Ability” value in data set [2] (subcutaneous injection 30 μg/kg, 15 minutes prior, vs vehicle) turned out to be 62%.
